Test results from EP0412158A1, “ONCOSTATIC DRUG” (priority 1987, dated 1988).
Where two headings read alike, the source gives them in different places. Marks after values point to notes of the source that are not given here.

What was measured:
[1] = system: methyl cholanthrene A tumor; experiment: Antineoplastic activity against transplanted methyl cholanthrene A tumor, evaluation by size of tumor (Examples 1 to 6); format: in vivo, female BALB/C mice; conditions: for Average weight of tumor / Number of tumorless mice /total number of mice / Change in body weight / T/control: ip×9; for Change in body weight: body weight 13 days after transplantation; for T/control: tumor weight
Experimental: By dissolving alkylammonium salt of polymolybdic acid [NH3C3H7(iso)]s [Mo7O24] • 3H2O (Compound A) and other compounds (Compounds B to D) severally in distilled water, aqueous solutions containing the compounds in a fixed concentration of 10 mg/ml were obtained. These aqueous solutions were administered to female BALB/C mice (five weeks old) to which methyl cholanthrene A tumor had been transplanted to test the compounds for antineoplastic activity. To be specific, methyl cholanthrene A was transplanted to the mice in a ratio of 1.0 x 10^5 cells per mouse and the aqueous solutions were continuously administered to the mice by intraperitoneal injection ([…]) for nine days. On elapse of 14 days following the start of the administration, the tumors in the mice were measured. For comparison, mice to which no antineoplastic .drug was administered and mice to which aminonitroso urea was administered were tested by following the procedure described above.

methyl cholanthrene A = experiment: Methyl cholanthrene A tumor, evaluation by elongation of period of survival (Examples 31, 34 and 35); format: in vivo, female BALB/C mice; conditions: 100 mg/kg, ip × 9 (D1~D9)
Experimental: The active compounds, M to 0, mentioned above were severally dissolved in distilled water to obtain aqueous solutions containing the compounds in a fixed concentration of 10 mg/ml. To be specific, to female BALB/C mice (five weeks old) to which methyl cholanthrene A had been transplanted in a ratio of 1.0 x 10^5 cells per mouse, […] for 9 consecutive days to determine the mice's periods of survival. For comparison, mice to which no aqueous solution was administered and mice to which aminonitrosourea was administered were similarly tested.

[2] = system: methyl cholanthrene A tumor; experiment: Methyl cholanthrene A tumor, evaluation by size of tumor (Examples 31 to 33); format: in vivo, female BALB/C mice
Experimental: A heteropoly acid salt, Na5[IM06O24]•34H2O (Compound M), and other compounds (Compounds N and O ) were severally dissolved in distilled water to obtain aqueous solutions containing the salts in a fixed concentration of 10 mg/ml. To female BALB/C mice (five weeks old) to which methyl cholanthrene A tumor had been transplanted, the aqueous solutions were administered to test the compounds for antineoplastic activity. To be specific, the methyl cholanthrene A was transplanted to the mice at a ratio of 1.0 x 10^5 cells per mouse and the aqueous solutions were administered ([…]) for 9 consecutive days by intraperitoneal injection. On elapse of 14 and 21 days after the stop of the administration, the sizes of tumors in the mice were measured. For comparison, mice to which no aqueous solution was administered and mice to which aminonitrosourea was administered were similarly tested.

breast cancer (MX-1) = format: in vivo, female nude mice; conditions: 100 mg/kg ip ×10; for T/C: tumor volume
Experimental: A patch of breast cancer [cancer cells recommended by National Cancer Institute (NCI) of the U.S.A.] (MX-1) measuring approximately 2 x 2 mm in area was transplanted to each of female nude mice five weeks old. To the mice, an aqueous solution of the aforementioned heteropoly acid salt (Compound M) was administered at a dose of 100 mg/kg once a day by intraperitoneal injection for 10 consecutive days on elapse of 17 days following the transplantation of tumor (ip). For 15 days following the stop of the administration, the volumes of tumor in the mice were measured to evaluate the effect of compound. At ip (x 10), significant suppression of hyperplasia appeared around the 4th day and a strong supression of hyperplasia of cancer was maintained even after 25 days following the completion of transplantation. For comparison, mice to which no aqueous solution was administered were similarly tested.

MM-46 breast cancer = format: in vivo, female C3H/He mice; conditions: for T/C: tumor weight
Experimental: The heteropoly acid salt (Compound M) mentioned above was dissolved in distilled water to obtain an aqueous solution containing the compound in a concentration of 10 mg/ml. This aqueous solution was administered to female C3H/He mice (five weeks old) to which MM-46 breast cancer had been transplanted, to test the compound for antineoplastic activity. To be more specific, the MM-46 breast cancer was transplanted to the mice in a ratio of 1.0 x 10^5 cells per mouse and the aqueous solution was administered (at a dose of 100 mg and a dose of 200 mg per kg of body weight) intraperitoneally (ip) or orally (po) for 9 consecutive days. After elapse of 14 days following the stop of the administration, the sizes of tumor were measured. For comparison, mice to which no aqueous solution was administered were similarly tested.

In the case of “[NH3C3H7(iso)]s (Mo7O24] • 3H2O [Compound A]”, the toxicity ([1]; 200 mg/kg.ip for nine days, judged by increase of body weight, result in words) is reported as “very low toxicity”, the “Average weight of tumor” value ([1]; No. 1, 100 mg/kg) is reported as 451.0 ± 84.7 mg and the “Number of tumorless mice /total number of mice” value (shortened to “Number … of mice”) ([1]; No. 1, 100 mg/kg) is reported as 1/8. The “Change in body weight” value ([1]; No. 1, 100 mg/kg) was “+2.50 (D1~D9) g”, the T/control ([1]; No. 1, 100 mg/kg) was 0.169 and the “Average weight of tumor” value ([1]; No. 2, 50 mg/kg) was 1182.1±246.8(10) mg. The “Number … of mice” value ([1]; No. 2, 50 mg/kg) was 0/10, the “Change in body weight” value ([1]; No. 2, 50 mg/kg) was “+1.81 g” and the T/control ([1]; No. 2, 50 mg/kg) was 0.414. For the same substance, the “Average weight of tumor” value ([1]; No. 2, 100 mg/kg) was 563.9±99.1(9) mg, the “Number … of mice” value ([1]; No. 2, 100 mg/kg) was 0/10 and the “Change in body weight” value ([1]; No. 2, 100 mg/kg) was “+1.97 g”. For the same substance, the T/control ([1]; No. 2, 100 mg/kg) was 0.198, the “Average weight of tumor” value ([1]; No. 2, 200 mg/kg) was 1211.8±227.6(8) mg and the “Number … of mice” value ([1]; No. 2, 200 mg/kg) was 0/8. For the same substance, the “Change in body weight” value ([1]; No. 2, 200 mg/kg) was “+1.81 g”, the T/control ([1]; No. 2, 200 mg/kg) was 0.424 and the “Average weight of tumor” value ([1]; No. 3, 50 mg/kg) was 1606.0±163.5(8) mg. The “Number … of mice” value ([1]; No. 3, 50 mg/kg) was 0/8, the “Change in body weight” value ([1]; No. 3, 50 mg/kg) was “+1.68 g” and the T/control ([1]; No. 3, 50 mg/kg) was 0.624.
Nas [IMo6O24] • 34H2O [Compound M] was tested, and the “Average number of days of survival ±SE” value (methyl cholanthrene A) was 42.57±5.77(7) days, the ILS (methyl cholanthrene A) was 61.3% and the “Average weight of tumor after elapse of 14 days ± SE” value ([2]; 100 mg/kg, ip × 9 (D1~D9)) was 191.1±38.8(7) mg. The toxicity ([2]; 100 mg/kg.ip for 9 consecutive days, judged by increase of body weight, result in words) was “very slight toxicity”, the “Average volume of tumor, Average ±SE” value (breast cancer (MX-1); day 1) was 333.2±25.0 mm^3 and the “Average volume of tumor, Average ±SE” value (breast cancer (MX-1); day 2) was 404.7±16.5 mm^3. For the same substance, the T/C (breast cancer (MX-1); day 2) was 90.9%, the “Average volume of tumor, Average ±SE” value (breast cancer (MX-1); day 3) was 510.0±38.8 mm^3 and the T/C (breast cancer (MX-1); day 3) was 88.6%. The “Average volume of tumor, Average ±SE” value (breast cancer (MX-1); day 4) was 575.0±14.4 mm^3, the T/C (breast cancer (MX-1); day 4) was 85.9* % and the “Average volume of tumor, Average ±SE” value (breast cancer (MX-1); day 5) was 555.2±44.7 mm^3. For the same substance, the T/C (breast cancer (MX-1); day 5) was 74.7** %, the “Average volume of tumor, Average ±SE” value (breast cancer (MX-1); day 6) was 565.5±36.7 mm^3 and the T/C (breast cancer (MX-1); day 6) was 76.1** %. For the same substance, the “Average volume of tumor, Average ±SE” value (breast cancer (MX-1); day 7) was 616.7±20.3 mm^3, the T/C (breast cancer (MX-1); day 7) was 64.3 **** % and the “Average volume of tumor, Average ±SE” value (breast cancer (MX-1); day 8) was 786.0±40.0 mm^3. For the same substance, the T/C (breast cancer (MX-1); day 8) was 75.4*** %, the “Average volume of tumor, Average ±SE” value (breast cancer (MX-1); day 9) was 869.0±33.2 mm^3 and the T/C (breast cancer (MX-1); day 9) was 63.6*** %. The “Average volume of tumor, Average ±SE” value (breast cancer (MX-1); day 10) was 957.9±38.1 mm^3, the T/C (breast cancer (MX-1); day 10) was 64.8*** % and the “Average volume of tumor, Average ±SE” value (breast cancer (MX-1); day 11) was 1092.7±32.4 mm^3. The T/C (breast cancer (MX-1); day 11) was 69.5*** %, the “Average volume of tumor, Average ±SE” value (breast cancer (MX-1); day 15) was 1540.5±106.6 mm^3 and the T/C (breast cancer (MX-1); day 15) was 61.7** %. For the same substance, the “Average volume of tumor, Average ±SE” value (breast cancer (MX-1); day 18) was 1821.0±127.4 mm^3, the T/C (breast cancer (MX-1); day 18) was 61.5*** % and the “Average volume of tumor, Average ±SE” value (breast cancer (MX-1); day 21) was 2182.0±148.6 mm^3. The T/C (breast cancer (MX-1); day 21) was 64.5*** %, the “Average volume of tumor, Average ±SE” value (breast cancer (MX-1); day 25) was 2671.7±154.5 mm^3 and the T/C (breast cancer (MX-1); day 25) was 73.0** %. For the same substance, the “Average weight of tumor 21 days after transplantation ±SE” value (MM-46 breast cancer; 100 mg/kg/day ip×9) was 560±283(6) mg, the “Number … of mice” value (MM-46 breast cancer; 100 mg/kg/day ip×9) was 0/6 and the T/C (MM-46 breast cancer; 100 mg/kg/day ip×9) was 0.277. The “Average weight of tumor 21 days after transplantation ±SE” value (MM-46 breast cancer; 200 mg/kg/day po×9) was 572±76(6) mg, the “Number … of mice” value (MM-46 breast cancer; 200 mg/kg/day po×9) was 0/7 and the T/C (MM-46 breast cancer; 200 mg/kg/day po×9) was 0.258.
